Where “and” joins values, the source holds several entries; their conditions need not be identical. Equal entries are not always repeated.
T1: Gox0646 (Gluconobacter oxydans, UniProt Q5FT73)
T1 sequence (Q5FT73 1-264): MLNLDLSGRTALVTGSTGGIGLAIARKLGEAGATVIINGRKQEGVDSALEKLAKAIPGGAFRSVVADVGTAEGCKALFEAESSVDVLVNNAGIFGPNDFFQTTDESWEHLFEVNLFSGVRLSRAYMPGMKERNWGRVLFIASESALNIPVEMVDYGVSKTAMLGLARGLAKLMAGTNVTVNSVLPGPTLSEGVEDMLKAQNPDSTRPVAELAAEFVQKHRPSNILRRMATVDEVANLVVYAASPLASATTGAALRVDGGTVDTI

T2: Gox1615 (Gluconobacter oxydans, UniProt Q5FQJ0)
T2 sequence (Q5FQJ0 1-332): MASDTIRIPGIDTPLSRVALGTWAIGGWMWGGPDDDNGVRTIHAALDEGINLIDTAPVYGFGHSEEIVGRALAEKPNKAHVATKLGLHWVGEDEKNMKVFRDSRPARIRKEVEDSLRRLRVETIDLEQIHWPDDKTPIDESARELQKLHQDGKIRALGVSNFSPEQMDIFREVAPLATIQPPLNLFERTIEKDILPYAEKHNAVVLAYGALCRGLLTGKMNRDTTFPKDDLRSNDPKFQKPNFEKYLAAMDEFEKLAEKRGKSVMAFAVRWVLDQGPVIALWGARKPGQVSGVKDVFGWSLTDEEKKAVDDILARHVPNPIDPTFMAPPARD

T3: Gox0313 (Gluconobacter oxydans, UniProt Q5FU50)
T3 sequence (Q5FU50 1-343): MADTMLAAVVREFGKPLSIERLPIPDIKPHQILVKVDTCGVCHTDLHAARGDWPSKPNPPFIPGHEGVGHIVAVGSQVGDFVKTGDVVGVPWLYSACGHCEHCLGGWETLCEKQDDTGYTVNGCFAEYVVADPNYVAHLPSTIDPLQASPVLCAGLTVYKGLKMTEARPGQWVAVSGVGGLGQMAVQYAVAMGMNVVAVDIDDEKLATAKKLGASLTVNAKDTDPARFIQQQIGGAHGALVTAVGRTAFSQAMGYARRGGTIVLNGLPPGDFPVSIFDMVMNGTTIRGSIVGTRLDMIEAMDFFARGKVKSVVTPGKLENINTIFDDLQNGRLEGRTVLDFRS

T4: Gox0502 (Gluconobacter oxydans, UniProt Q5FTL6)
T4 sequence (Q5FTL6 1-361): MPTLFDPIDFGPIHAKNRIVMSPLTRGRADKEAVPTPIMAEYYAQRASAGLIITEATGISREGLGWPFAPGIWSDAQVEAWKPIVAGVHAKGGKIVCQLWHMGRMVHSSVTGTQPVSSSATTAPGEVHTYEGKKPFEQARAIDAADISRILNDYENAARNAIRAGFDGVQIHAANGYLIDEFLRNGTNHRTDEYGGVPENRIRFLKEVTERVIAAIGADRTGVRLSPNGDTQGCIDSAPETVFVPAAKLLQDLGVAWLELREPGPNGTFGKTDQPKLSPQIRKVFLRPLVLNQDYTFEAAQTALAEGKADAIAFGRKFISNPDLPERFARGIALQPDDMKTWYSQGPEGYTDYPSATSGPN

T5: Gox2684 (Gluconobacter oxydans, UniProt Q5HXK5)
T5 sequence (Q5HXK5 1-357): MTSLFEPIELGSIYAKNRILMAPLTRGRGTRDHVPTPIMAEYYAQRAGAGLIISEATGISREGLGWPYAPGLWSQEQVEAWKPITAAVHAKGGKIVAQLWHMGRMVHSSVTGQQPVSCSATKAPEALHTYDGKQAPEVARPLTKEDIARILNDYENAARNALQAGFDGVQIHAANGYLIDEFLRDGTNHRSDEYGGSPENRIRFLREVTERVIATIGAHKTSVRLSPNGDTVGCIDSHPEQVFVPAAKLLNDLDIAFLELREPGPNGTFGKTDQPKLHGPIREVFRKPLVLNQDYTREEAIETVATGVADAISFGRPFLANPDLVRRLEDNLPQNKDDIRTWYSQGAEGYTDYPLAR


Tests used:
[1] = biological target: Gox0644 (Gluconobacter oxydans, UniProt Q5FT75); assay: Enzyme activity assay (rate of NAD(P)H decrease at 340 nm), Gox0644; type: biochemical; conditions: 10 mM substrate; for Specific Activity: Tab. 4, Gox0644, cofactor NADPH, pH 7.0, 30 °C
Procedure: (§1) Reactions were induced by addition of enzyme or substrate. One unit of enzyme activity was defined as the amount of enzyme catalyzing the conversion of 1 µmol of pyridine nucleotide per min at 30 °C.
as §1
For each enzyme (Gox0313, Gox0502, Gox0644, Gox0646, Gox1615, Gox2107, and Gox2684 respectively), fresh enzyme preparations were used to validate the substrate spectrum and the kinetic activity. […] Reactions were induced by addition of enzyme or substrate. One unit of enzyme activity was defined as the amount of enzyme catalyzing the conversion of 1 µmol of pyridine nucleotide per min at 30 °C. […] Table 3: Summary of enzymatic activities with α-diketones, α-ketoaldehydes and /or α-ketoesters

[2] = biological target: T1, Gox0646; assay: Enzyme activity assay (rate of NAD(P)H decrease at 340 nm), Gox0646; type: biochemical; conditions: 10 mM substrate; for Specific Activities: Tab. 9, GOX0646, cofactor NADPH, pH 7.0, 30 °C
Procedure: (§2) Measurment of enzyme activity: NADPH-dependent alpha-ketocarbonyl reductases were assayed by a routine method used for NAD(P)-linked enzymes by recording the rate of decrease of NADPH at 340 nm (ε = 6.22 mM^-1 x cm^-1)) with substrates at 30 °C. The reaction mixture (1 ml) for reduction of alpha-ketocarbonyl substrates contained 10 mM substrate, 40 mM potassium phosphate buffer pH 7.0, 0.025 mM NAD(P)H , and the enzyme. Reactions were induced by addition of enzyme or substrate. One unit of enzyme activity was defined as the amount of enzyme catalyzing the conversion of 1 µmol of pyridine nucleotide per min at 30 °C.
(§3) NADPH-dependent α-ketocarbonyl reductases were assayed by a routine method used for NAD(P)-linked enzymes by recording the rate of decrease of NADPH at 340 nm (ε = 6.22 mM^-1.cm^-1) with substrates at 30 °C. The reaction mixture (1 ml) for reduction of alpha-ketocarbonyl substrates contained 10 mM substrate, 40 mM potassium phosphate buffer pH 7.0, 0.025 mM NADPH , and the enzyme. Reactions were induced by addition of enzyme or substrate. One unit of enzyme activity was defined as the amount of enzyme catalyzing the conversion of 1 µmol of pyridine nucleotide per min at 30 °C.
(§4) For each enzyme (Gox0313, Gox0502, Gox0644, Gox0646, Gox1615, Gox2107, and Gox2684 respectively), fresh enzyme preparations were used to validate the substrate spectrum and the kinetic activity. […] Purified NAD(P)-dependent oxidoreductases were assayed at 30 °C by a routine method used for NAD(P)-linked enzymes by recording the rate of decrease of NAD(P)H at 340 nm (ε = […]) with substrates capable of reduction reactions. The standard reaction mixture (1 ml) for the reduction reactions of substrates contained 10 mM substrate, 40 mM potassium phosphate buffer (K-phosphate buffer) pH 7.0, 0.05 mM NAD(P)H, and the enzyme unless otherwise noted. Reactions were induced by addition of enzyme or substrate. One unit of enzyme activity was defined as the amount of enzyme catalyzing the conversion of 1 µmol of pyridine nucleotide per min at 30 °C. Measurement of the protein content was performed by the method of Bradford in Anal. Biochem. 72:248-254 (1976). Table 3: Summary of enzymatic activities with α-diketones, α-ketoaldehydes and /or α-ketoesters

[3] = biological target: T2, Gox1615; assay: Enzyme activity assay (rate of NAD(P)H decrease at 340 nm), Gox1615; type: biochemical; conditions: 10 mM substrate; for Specific Activity: Tab. 5, Gox1615, cofactor NADPH, pH 7.0, 30 °C
Procedure: as §2, §3, §4

[4] = biological target: T3, Gox0313; assay: Enzyme activity assay (rate of NAD(P)H decrease at 340 nm), Gox0313; type: biochemical; conditions: 10 mM substrate; for Specific Activity: Tab. 6, Gox0313, substrate reduction, cofactor NADH, pH 7.0, 30 °C
Procedure: as §2, §3, §4

[5] = biological target: Gox2107 (Gluconobacter oxydans, UniProt Q5FP53); assay: Enzyme activity assay (rate of NAD(P)H decrease at 340 nm), Gox2107; type: biochemical; conditions: for Specific Activity: Tab. 7, Gox2107, cofactor NADPH, 10 mM substrate, pH 7.0, 30 °C
Procedure: as §2, §3, §4

[6] = biological target: T4, Gox0502; assay: Enzyme activity assay (rate of NAD(P)H decrease at 340 nm), Gox0502; type: biochemical; design: Strep-tag II (N); made in house; host or cells: E. coli BL21 or E. coli DH5α (pASK-IBA5); conditions: 10 mM substrate; for Specific Activity: Tab. 7, Gox0502, cofactor NADPH, pH 7.0, 30 °C
Procedure: as §2, §3, §4

[7] = biological target: T5, Gox2684; assay: Enzyme activity assay (rate of NAD(P)H decrease at 340 nm), Gox2684; type: biochemical; conditions: Tab. 8, GOX2684; cofactor NADPH; 10 mM substrate, pH 7.0, 30 °C
Procedure: as §2, §3, §4

[8] = substrate: CCC(=O)C(C)=O; assay: Enzyme kinetics (Lineweaver-Burk plots), Gox0646; type: biochemical, Gluconobacter oxydans; conditions: other: Gox0646; substrate 0.025 to 10 mM
Procedure: (§5) Determination of pH and temperature optima and enzyme kinetics: The optimum pH for enzyme activities was determined by a modified method of Salusjärvi, T. et al., Appl. Microbiol. Biotechnol. 65:306-314 (2004) using the following buffer system (50 mM final concentration each): sodium acetate pH 4.5 - 6.5, potassium phosphate pH 6.5 - 8.0, Tris-HCl pH 8.0 - 10. Temperature optima for the biocatalysts were determined under standard reaction conditions at temperatures ranging from 20 - 80 °C. The Michaelis constant (Km) for the proteins was determined from purified enzyme by Lineweaver-Burk plots. Assays were performed at optimum pH for each enzyme and at 30 °C using the top substrate and a targeted substrate. The Km for each substrate was calculated using concentrations of 0.0025 to 10 mM, and the Km NAD(P)H and NAD(P) was calculated using concentrations of 0.01 to 0.5 mM
(§6) The Michaelis constants were determined from purified enzyme by Lineweaver-Burk plots. The Km and Vmax values for the substrates were calculated using concentrations of 0.025 to 10 mM, The optimal pH values and temperatures for enzyme activities are also shown in Tab. 11. Tab. 11: Summary of kinetic parameters

[9] = substrate: CC=O; assay: Enzyme kinetics (Lineweaver-Burk plots), Gox0313; type: biochemical, Gluconobacter oxydans; conditions: other: Gox0313; substrate 0.025 to 10 mM
Procedure: as §5, §6

[10] = substrate: CCC(=O)C(C)=O; assay: Enzyme kinetics (Lineweaver-Burk plots), Gox0313; type: biochemical, Gluconobacter oxydans; conditions: other: Gox0313; substrate 0.025 to 10 mM
Procedure: as §5, §6

Row | Molecule | Specific Activity [1] [U/mg] | Specific Activities [2] [U/mg] | Specific Activity [3] [U/mg] | Specific Activity [5] [U/mg] | Specific Activity [6] | further results
1 | O=C1Nc2ccccc2C1=O [Isatin] | 16.1 | 0.1 | 2.4 | – | – | –
2 | CC(=O)C(=O)c1ccccc1 [1-phenyl-1,2-propanedione] | 75.4 | 6.0 | 5.4 | < 0.1 | 2,0 U/mg | Specific Activity [4]: 0.2 U/mg; Activity ([4]; Table 3, Gox0313, K-phosphate buffer pH 7.0, 0.05 mM NAD(P)H, 30 °C): 0.2 U/mg; Activity ([1]; Table 3, Gox0644, K-phosphate buffer pH 7.0, 0.05 mM NAD(P)H, 30 °C): 75.4 U/mg; Activity ([2]; Table 3, Gox0646, K-phosphate buffer pH 7.0, 0.05 mM NAD(P)H, 30 °C): 6.0 U/mg; Activity ([3]; Table 3, Gox1615, K-phosphate buffer pH 7.0, 0.05 mM NAD(P)H, 30 °C): 5.4 U/mg; Activity ([6]; Table 3, Gox0502, K-phosphate buffer pH 7.0, 0.05 mM NAD(P)H, 30 °C): 2.0 U/mg
3 | O=C1C=CC(=O)c2ccccc21 [1,4-naphthoquinone] | – | 0.2 | – | 217.5 | 16.6 U/mg | activities ([5]; Gox2107, reduction with NADPH): 217.4 µmol/mg/min; Specific Activities [7]: 3.4 U/mg
4 | CC(=O)C(C)=O [2,3-butanedione] | 60.0 | 0.8 | 6 | < 0.1 | 0.5 U/mg | Specific Activity [4]: 28.5 U/mg; Specific Activities [7]: 0.5 U/mg
5 | O=C1C=CC(=O)C=C1 [p-benzoquinone] | – | 0.3 | – | 180.5 | 10 U/mg | –
6 | Gox0646 (Gluconobacter oxydans 621H) (protein) MLNLDLSGRTALVTGSTGGIGLAIARKLGEAGATVIINGRKQEGVDSALEKLAKAIPGGAFRSVVADVGTAEGCKALFEAESSVDVLVNNAGIFGPNDFFQTTDESWEHLFEVNLFSGVRLSRAYMPGMKERNWGRVLFIASESALNIPVEMVDYGVSKTAMLGLARGLAKLMAGTNVTVNSVLPGPTLSEGVEDMLKAQNPDSTRPVAELAAEFVQKHRPSNILRRMATVDEVANLVVYAASPLASATTGAALRVDGGTVDTI | – | – | – | – | – | Km [8]: 9 mM and 9.3 mM; Vmax [8]: 10 U/mg protein and 10.0 µmol/min•mg
7 | Gox0313 (Gluconobacter oxydans 621H) (protein) MADTMLAAVVREFGKPLSIERLPIPDIKPHQILVKVDTCGVCHTDLHAARGDWPSKPNPPFIPGHEGVGHIVAVGSQVGDFVKTGDVVGVPWLYSACGHCEHCLGGWETLCEKQDDTGYTVNGCFAEYVVADPNYVAHLPSTIDPLQASPVLCAGLTVYKGLKMTEARPGQWVAVSGVGGLGQMAVQYAVAMGMNVVAVDIDDEKLATAKKLGASLTVNAKDTDPARFIQQQIGGAHGALVTAVGRTAFSQAMGYARRGGTIVLNGLPPGDFPVSIFDMVMNGTTIRGSIVGTRLDMIEAMDFFARGKVKSVVTPGKLENINTIFDDLQNGRLEGRTVLDFRS | – | – | – | – | – | Km [9]: 0.5 mM; Vmax [9]: 95 U/mg protein; Km [10]: 3.1 mM; Vmax [10]: 97 U/mg protein

— patent EP2119770B1, “Production of alpha-oxyfunctionalized carbonyl compounds” (priority 2008, dated 2009)
